{"source": "patent US8057792B2", "about": "“Use of an antibody that blocks TNF-alpha activity for treating a nerve disorder mediated by nucleus pulposus” (Sciaticon AB, priority 1998, dated 2011)", "key": {"[1]": {"test_system": "nucleus pulposus-induced nerve root injury", "settings": "previous publications; cited from earlier work"}, "[2]": {"test_system": "pigs with autologous nucleus pulposus placed onto the sacrococcygeal cauda equina", "test": "Series-3: nerve root conduction velocity 7 days after nucleus pulposus application, systemic TNF inhibitors", "assay_type": "in vivo, pig", "settings": "for Effect on nucleus pulposus induced nerve injury: 7 days, systemic treatment; for NCV (m/s +/− SD): pig, 7 days after NP application, infliximab 100 mg i.v. preoperatively, etanercept 12.5 mg s.c. twice", "experimental": "Series-3: Thirteen pigs had autologous nucleus pulposus placed onto their sacrococcygeal cauda equina similar to series-2. Five pigs (body weight 25 kg) received REMICADE® (infliximab) 100 mg i.v. preoperatively, and 8 pigs received ENBREL® (etanercept) 12.5 mg s.c. preoperatively and additionally 12.5 mg s.c. three days after the operation. Seven days after the nucleus pulposus-application the nerve root conduction velocity was determined over the application zone by local electrical stimulation according to series-2. Thirteen pigs had autologous nucleus pulposus placed onto their sacrococcygeal cauda equina similar to series-2. Five pigs (bodyweight 25 kg) received the human/murine monoclonal antibody, REMICADE® (infliximab, […]) 100 mg i.v. preoperatively, and 8 pigs received ENBREL® (etanercept, Centocor B.V., Leiden, the Netherlands) 12.5 mg s.c. preoperatively and additionally 12.5 mg s.c. three days after the operation. Seven days after the nucleus pulposus-application the nerve root conduction velocity was determined over the application zone by local electrical stimulation according to series-2. […] No non-treated animals were included in the series-3 due to the pre-existing knowledge of nerve conduction velocity after seven days of either nucleus pulposus or fat (control) application. The statistical difference between the groups, infliximab, and etanercept, nucleus pulposus without treatment (positive control from previous data) and application of retroperitoneal fat (negative control from previous data) was assessed by using ANOVA and Fisher's PLSD at 5%."}, "[3]": {"test_system": "pigs with autologous nucleus pulposus applied to the sacrococcygeal cauda equina", "test": "Example 6: nerve conduction velocity 3 days after application of nucleus pulposus mixed with inhibitors", "assay_type": "in vivo", "settings": "pig; inhibitor mixed with NP before application (100 µg antibody each, 2 mg doxycycline)", "experimental": "Fourteen pigs, (body weight 25-30 kg) received an intramuscular injection of 20 mg/kg body weight of KETALAR® (ketamine 50 mg/ml, Parke-Davis, Morris Plains, N.J.) and an intravenous injection of 4 mg/kg body weight of HYPNODIL® (methomidate chloride 50 mg/ml, AB Leo, Helsingborg, Sweden) and 0.1 mg/kg body weight of STRESNIL® (azaperon 2 mg/ml, Janssen Pharmaceutica, Beerse, Belgium). Anesthesia was maintained by additional intravenous injections of 2 mg/kg body weight of HYPNODIL® and 0.05 mg/kg body weight of STRESNIL®. The pigs also received an intravenous injection of 0.1 mg/kg of STESOLID NOVUM® (Diazepam, Dumex, Helsingborg) after surgery.\nNucleus pulposus was harvested from the 5th lumbar disc through a retroperitoneal approach. […]\nThree days after the application, the pigs were reanaesthetized by an intramuscular injection of 20 mg/kg body weight of KETALAR® and an intravenous injection of 35 mg/kg body weight of PENTOTHAL® (Thiopental sodium, Abbott lab, Chicago, Ill.). […] Local tissue temperature was continuously monitored and maintained at 37.538.0. degree. […]\nThe person performing the neurophysiologic analyzes was unaware of the experimental protocol for the individual animal, and after finishing the complete study the data were arranged in the three experimental groups and statistical differences between the groups were assessed by Student's t-test. […]"}}, "data": [{"compound": "CCN(CC)CC(=O)Nc1c(C)cccc1C", "note": "[lidocaine]", "values": [{"measurement": "Block of nucleus pulposus-related effects", "setting": "[1]", "result": "slightly less efficiently"}]}, {"compound": "etanercept [ENBREL ®]", "values": [{"measurement": "Effect on nucleus pulposus induced nerve injury", "setting": "[2]", "result": "blocked the nucleus pulposus induced nerve injury efficiently"}, {"measurement": "NCV (m/s +/− SD)", "setting": "[2]", "result": "78 +/− 14 m/s"}]}, {"compound": "cyclosporin A", "values": [{"measurement": "Block of nucleus pulposus-related effects", "setting": "[1]", "result": "blocked efficiently"}]}, {"compound": "infliximab [REMICADE ®]", "values": [{"measurement": "Effect on nucleus pulposus induced nerve injury", "setting": "[2]", "result": "blocked the nucleus pulposus induced nerve injury efficiently"}, {"measurement": "NCV (m/s +/− SD)", "setting": "[2]", "result": "79 +/− 15 m/s"}]}, {"compound": "COc1ccc2c(c1)c(CC(=O)O)c(C)n2C(=O)c1ccc(Cl)cc1", "note": "[indomethacin]", "values": [{"measurement": "Block of nucleus pulposus-related effects", "setting": "[1]", "result": "slightly less efficiently"}]}, {"compound": "C[C@H]1c2cccc(O)c2C(=O)C2=C(O)[C@]3(O)C(=O)C(C(N)=O)=C(O)[C@@H](N(C)C)[C@@H]3[C@@H](O)[C@@H]21", "note": "[Doxycycline, doxycycline]", "values": [{"measurement": "Nerve conduction velocity (m/s) 3 days after application", "setting": "[3]", "result": "53 +/− 22 m/s"}]}]}
